Counter-ions that a name gives are not always drawn.
Tests used:
KPC cells = test: CRT expression (flow cytometry), HMGB1 release (ELISA) and ATP release; type: cell-based, mouse
Protocol: 7.5×10^4 KPC cells were seeded into 24-well plates. After cell attachment, KPC cells were treated with IRIN (300 µM), OX (500 µM), DOX (20 µM or PTX (12 µM for 24 h. The cell culture media were collected in 1.5 mL tube and spun down (2,000 rpm for 5 min) to collect the supernatants for HMGB1 detection by an ELISA kit (Catalog# ST51011, IBL International GmbH). Surface CRT expression was measured by flow cytometry in the same experiment, as previously described. ^[27] Briefly, the loosely attached cells were combined with trypsin-treated adhered cells. The cells were washed in cold PBS and then stained with a primary anti-CRT antibody (Abcam, ab2907, 1: 140) in 200 µL BD staining buffer for 0.5 h on ice. The cells were washed in cold PBS and stained with an Alexa Fluor® 680-conjugated secondary antibody (LifeScience Technologies #A21244) for 30 min on ice. After washing in cold PBS, the cells were assessed in a LSRII flow cytometer (BD Biosciences).

[1] = pKa and % protonated drug (Henderson-Hasselbalch equation); type: physicochemical
Protocol: FIG. 9, panels A-D, illustrates a dose- and time-dependent study on IRIN-induced lysosomal alkalization effect in KPC cells. Panel A) Dose-dependence. KPC cells were treated with indicated free IRIN dose for 24 hours, followed by DND 99 and Hoechst dye co-staining, similar to FIG. 1, panel C. We were able to discern a major signal drop at 20 µM. IRIN accumulation in the KPC cells is indicated by white arrows. Panel B) Time-dependence. KPC cells were treated using 300 µM free IRIN for indicated time period, followed by DND 99/Hoechst co-staining, similar to panel A. We were able to observe a major DND 99 signal drop as early as 1 h post incubation. Quantification of DND 99 fluorescence intensity in panels A and B higher presented in FIG. 1, panel D. Panel C) Similar to the experiment described in FIG. 1, panel C, KPC cells were exposed to IRIN (300 µM) or chloroquine (CQ, 32 µM) for 24 h. The disappearance of the red fluorescence staining in the acidifying organellar environment in IRIN- and CQ-treated cells is as a result of the alkalization effect of these weak-base molecules. Bars are 10 µm. Panel D) The Henderson-Hasselbalch (H—H) equation allows calculation of % protonated drug at different pH values. Although 83.3% of IRIN molecules are protonated at pH 7.4, the equilibrium shifts to ~99% of the molecules at a lysosomal relevant pH ~4.5-5.5. […]

PANC-1 cells = test: Confirmative cellular studies (alkalization, autophagy inhibition, PD-L1 induction); type: cell-based, human; settings: equivalent drug concentration 300 µM, 24 hrs
Protocol: To confirm the effect of IRIN, another PDAC cell line, i.e. PANC-1 cells, were used to study IRIN induced alkalization effect (panel A), autophagy inhibition (panel B) and PD-L1 induction (panel C). The treatments included free IRIN, IRIN silicasome and empty silicasome at equivalent drug concentration of 300 µM for 24 hrs. PBS served as a negative control. Bars: 10 µm. Signal intensity was quantified by Image J. At least three representative images were analyzed for each treatment. Data represents mean ± SD, n = 3. *p<0.05, **p<0.01, ***p<0.001 (1-way ANOVA followed by a Tukey’s test). […] No significant effect was observed when empty silicasome was tested.

CCc1c2c(nc3ccc(OC(=O)N4CCC(N5CCCCC5)CC4)cc13)-c1cc3c(c(=O)n1C2)COC(=O)[C@]3(O)CC [IRIN, Irinotecan hydrochloride trihydrate]
ATP release (KPC cells): could not demonstrate an increase in ATP release
CRT expression and HMGB1 release (KPC cells; IRIN 300 µM, 24 h): strong inducer of both responses
% of molecules protonated ([1]; lysosomal relevant pH ~4.5-5.5): ~ 99%
% of molecules protonated ([1]; pH 7.4): 83.3%
lysosomal pH, LC-3B generation and PD-L1 expression (PANC-1 cells): capable of neutralizing lysosomal pH, triggered LC-3B generation and increase PD-L1 expression
